From patent publication US7973217B2, “Stem-regulated, plant defense promoter and uses thereof in tissue-specific expression in monocots” (The Texas A&M University System, priority 2003, dated 2011)

Assays:
Assay type in all cases: in vivo
OMT = experiment: cDNA microarray of OMT expression in sugarcane plants sprayed with defense-inducing agents; settings: treated (Cy5) v. untreated control (Cy3), normalized
Protocol: The 251 cDNA clones used for microarray analysis in Example 1 were further used to assess the effects of defense-inducing agents on the expression of the stem-specific genes.
Total RNA was extracted from wild type sugarcane plants (3 months-old) that were sprayed with the defense-inducing agents jasmonic acid (JA) (25µM in 0.05.percent.Tween 20), methyl-jasmonate (MeJA) (200µM in 0.1.percent.ethanol and 0.05.percent.Tween 20) or salicylic acid (SA) (5 mM in 0.05.percent.Tween 20) for two time periods, 24 and 48 hours. The microarray including 251 cDNAs was probed with fluorescently labeled cDNAs synthesized from 1µg of total amplified RNA. One cDNA probe (e.g. RNA from plant treated with a defense-inducing agent) is labeled with one dye (Cy5), and the second (e.g. RNA from untreated control plant) with another dye (Cy3)
The normalized ratio of Cy5 v.

GUS [1] = experiment: Histochemical transient GUS expression in particle bombarded sorghum stem tissue; settings: versus Ubiquitin 1 promoter
Excerpt: (§1) FIG. 14 is a photomicrograph of particle bombarded maize and sorghum stem tissues showing histochemical localization of transient GUS expression driven by the stem-regulated OMT promoter or the constitutive maize ubiquitinl promoter.

GUS [2] = experiment: Histochemical transient GUS expression in particle bombarded maize stem tissue; settings: versus Ubiquitin 1 promoter
Excerpt: as §1

Compound | Cy5/Cy3 Ratios (Upregulation) for OMT (OMT; 24 hours after spraying) | Cy5/Cy3 Ratios (Upregulation) for OMT (OMT; 48 hours after spraying) | Transient expression of GUS in stem tissue (GUS [1]) | Transient expression of GUS in stem tissue (GUS [2])
CC/C=C\C[C@H]1C(=O)CC[C@@H]1CC(=O)O [JA, jasmonic acid] | 0.99 | 2.00 |  | 
CC/C=C\CC1C(=O)CCC1CC(=O)OC (stereo not shown) [MeJA, methyl-jasmonate] | 0.70 | 0.97 |  | 
O=C(O)c1ccccc1O [SA, salicylic acid] |  | 2.00 |  | 
OMT promoter: sugarcane o-methyl transferase gene promoter, SEQ ID NO:1, directing stem-regulated, defense-inducible expression |  |  | comparable to that obtained with the Ubiquitin 1 promoter | comparable to that obtained with the Ubiquitin 1 promoter
